{
  "source": "PubChem BioAssay (NCI)",
  "experiment_in_all_cases": "DTP human tumour cell line panel, 48 h",
  "key": {"OVCAR-4 ovarian": {"test_system": "OVCAR-4 ovarian"}, "SN12C renal": {"test_system": "SN12C renal"}, "DU-145 prostate": {"test_system": "DU-145 prostate"}, "MDA-MB-435": {"test_system": "MDA-MB-435"}, "HL-60(TB) leukemia": {"test_system": "HL-60(TB) leukemia"}, "HS 578T breast": {"test_system": "HS 578T breast"}, "HOP-62 NSCLC": {"test_system": "HOP-62 NSCLC"}, "U251 CNS": {"test_system": "U251 CNS"}, "NCI-H226 lung": {"test_system": "NCI-H226 lung"}, "COLO 205 colon": {"test_system": "COLO 205 colon"}, "EKVX NSCLC": {"test_system": "EKVX NSCLC"}, "NCI-H522 lung": {"test_system": "NCI-H522 lung"}, "OVCAR-3 ovarian": {"test_system": "OVCAR-3 ovarian"}, "PC-3 prostate": {"test_system": "PC-3 prostate"}, "SF-539 CNS": {"test_system": "SF-539 CNS"}, "RPMI-8226 leukemia": {"test_system": "RPMI-8226 leukemia"}, "NCI/ADR-RES ovarian": {"test_system": "NCI/ADR-RES ovarian"}, "HOP-92 NSCLC": {"test_system": "HOP-92 NSCLC"}, "KM12 colon": {"test_system": "KM12 colon"}, "K-562 leukemia": {"test_system": "K-562 leukemia"}, "ACHN renal": {"test_system": "ACHN renal"}, "HT29 colon": {"test_system": "HT29 colon"}, "SNB-75 CNS": {"test_system": "SNB-75 CNS"}, "RXF 393 renal": {"test_system": "RXF 393 renal"}, "BT-549 breast": {"test_system": "BT-549 breast"}, "SF-295 CNS": {"test_system": "SF-295 CNS"}, "UACC-62 melanoma": {"test_system": "UACC-62 melanoma"}, "MALME-3M melanoma": {"test_system": "MALME-3M melanoma"}, "T-47D breast": {"test_system": "T-47D breast"}, "SK-MEL-5 melanoma": {"test_system": "SK-MEL-5 melanoma"}, "MDA-MB-231 breast": {"test_system": "MDA-MB-231 breast"}, "CAKI-1 renal": {"test_system": "CAKI-1 renal"}, "HCT-116 colon": {"test_system": "HCT-116 colon"}, "SF-268 CNS": {"test_system": "SF-268 CNS"}, "M14 melanoma": {"test_system": "M14 melanoma"}, "OVCAR-8 ovarian": {"test_system": "OVCAR-8 ovarian"}, "SK-MEL-2 melanoma": {"test_system": "SK-MEL-2 melanoma"}, "A498 renal": {"test_system": "A498 renal"}, "IGROV1 ovarian": {"test_system": "IGROV1 ovarian"}, "MOLT-4 leukemia": {"test_system": "MOLT-4 leukemia"}, "HCC-2998 colon": {"test_system": "HCC-2998 colon"}, "TK-10 renal": {"test_system": "TK-10 renal"}, "SNB-19 CNS": {"test_system": "SNB-19 CNS"}, "A549 NSCLC": {"test_system": "A549 NSCLC"}, "SR leukemia": {"test_system": "SR leukemia"}, "MCF7 breast": {"test_system": "MCF7 breast"}, "LOX IMVI melanoma": {"test_system": "LOX IMVI melanoma"}, "786-0 renal": {"test_system": "786-0 renal"}, "SW-620 colon": {"test_system": "SW-620 colon"}, "SK-OV-3 ovarian": {"test_system": "SK-OV-3 ovarian"}, "OVCAR-5 ovarian": {"test_system": "OVCAR-5 ovarian"}, "UACC-257 melanoma": {"test_system": "UACC-257 melanoma"}, "SK-MEL-28 melanoma": {"test_system": "SK-MEL-28 melanoma"}, "NCI-H23 lung": {"test_system": "NCI-H23 lung"}, "MDA-N": {"test_system": "MDA-N"}, "HCT-15 colon": {"test_system": "HCT-15 colon"}, "CCRF-CEM leukemia": {"test_system": "CCRF-CEM leukemia"}, "NCI-H460 lung": {"test_system": "NCI-H460 lung"}, "UO-31 renal": {"test_system": "UO-31 renal"}},
  "note": "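The compound was tested at five concentrations on cells cultured in 96-well plates, with a 48-hour exposure period. Definition used: TGI = concentration required for complete inhibition of growth.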",
  "data": [
    {"smiles": "COC(=O)C1(Cc2ccccc2C)Cc2ccc(C)cc2C1=O", "note": "(centres undefined)", "values": [
      {"measurement": "TGI", "setting": "OVCAR-4 ovarian", "result": "> 100", "unit": "µM"},
      {"measurement": "TGI", "setting": "SN12C renal", "result": 57.4, "unit": "µM"},
      {"measurement": "TGI", "setting": "DU-145 prostate", "result": "> 100", "unit": "µM"},
      {"measurement": "TGI", "setting": "MDA-MB-435", "result": "> 100", "unit": "µM"},
      {"measurement": "TGI", "setting": "HL-60(TB) leukemia", "result": 30.9, "unit": "µM"},
      {"measurement": "TGI", "setting": "HS 578T breast", "result": "> 100", "unit": "µM"},
      {"measurement": "TGI", "setting": "HOP-62 NSCLC", "result": "> 100", "unit": "µM"},
      {"measurement": "TGI", "setting": "U251 CNS", "result": "> 100", "unit": "µM"},
      {"measurement": "TGI", "setting": "NCI-H226 lung", "result": "> 100", "unit": "µM"},
      {"measurement": "TGI", "setting": "COLO 205 colon", "result": 38.1, "unit": "µM"},
      {"measurement": "TGI", "setting": "EKVX NSCLC", "result": "> 100", "unit": "µM"},
      {"measurement": "TGI", "setting": "NCI-H522 lung", "result": 65.9, "unit": "µM"},
      {"measurement": "TGI", "setting": "OVCAR-3 ovarian", "result": "> 100", "unit": "µM"},
      {"measurement": "TGI", "setting": "PC-3 prostate", "result": 92.6, "unit": "µM"},
      {"measurement": "TGI", "setting": "SF-539 CNS", "result": "> 100", "unit": "µM"},
      {"measurement": "TGI", "setting": "RPMI-8226 leukemia", "result": 32.2, "unit": "µM"},
      {"measurement": "TGI", "setting": "NCI/ADR-RES ovarian", "result": 65.6, "unit": "µM"},
      {"measurement": "TGI", "setting": "HOP-92 NSCLC", "result": 71.3, "unit": "µM"},
      {"measurement": "TGI", "setting": "KM12 colon", "result": "> 100", "unit": "µM"},
      {"measurement": "TGI", "setting": "K-562 leukemia", "result": "> 100", "unit": "µM"},
      {"measurement": "TGI", "setting": "ACHN renal", "result": "> 100", "unit": "µM"},
      {"measurement": "TGI", "setting": "HT29 colon", "result": 57.5, "unit": "µM"},
      {"measurement": "TGI", "setting": "SNB-75 CNS", "result": "> 100", "unit": "µM"},
      {"measurement": "TGI", "setting": "RXF 393 renal", "result": 96.4, "unit": "µM"},
      {"measurement": "TGI", "setting": "BT-549 breast", "result": "> 100", "unit": "µM"},
      {"measurement": "TGI", "setting": "SF-295 CNS", "result": "> 100", "unit": "µM"},
      {"measurement": "TGI", "setting": "UACC-62 melanoma", "result": "> 100", "unit": "µM"},
      {"measurement": "TGI", "setting": "MALME-3M melanoma", "result": 72.6, "unit": "µM"},
      {"measurement": "TGI", "setting": "T-47D breast", "result": "> 100", "unit": "µM"},
      {"measurement": "TGI", "setting": "SK-MEL-5 melanoma", "result": 32.1, "unit": "µM"},
      {"measurement": "TGI", "setting": "MDA-MB-231 breast", "result": "> 100", "unit": "µM"},
      {"measurement": "TGI", "setting": "CAKI-1 renal", "result": "> 100", "unit": "µM"},
      {"measurement": "TGI", "setting": "HCT-116 colon", "result": "> 100", "unit": "µM"},
      {"measurement": "TGI", "setting": "SF-268 CNS", "result": "> 100", "unit": "µM"},
      {"measurement": "TGI", "setting": "M14 melanoma", "result": "> 100", "unit": "µM"},
      {"measurement": "TGI", "setting": "OVCAR-8 ovarian", "result": "> 100", "unit": "µM"},
      {"measurement": "TGI", "setting": "SK-MEL-2 melanoma", "result": 47.7, "unit": "µM"},
      {"measurement": "TGI", "setting": "A498 renal", "result": "> 100", "unit": "µM"},
      {"measurement": "TGI", "setting": "IGROV1 ovarian", "result": "> 100", "unit": "µM"},
      {"measurement": "TGI", "setting": "MOLT-4 leukemia", "result": 74.7, "unit": "µM"},
      {"measurement": "TGI", "setting": "HCC-2998 colon", "result": "> 100", "unit": "µM"},
      {"measurement": "TGI", "setting": "TK-10 renal", "result": 85.9, "unit": "µM"},
      {"measurement": "TGI", "setting": "SNB-19 CNS", "result": "> 100", "unit": "µM"},
      {"measurement": "TGI", "setting": "A549 NSCLC", "result": "> 100", "unit": "µM"},
      {"measurement": "TGI", "setting": "SR leukemia", "result": 33.1, "unit": "µM"},
      {"measurement": "TGI", "setting": "MCF7 breast", "result": 41, "unit": "µM"},
      {"measurement": "TGI", "setting": "LOX IMVI melanoma", "result": 45.9, "unit": "µM"},
      {"measurement": "TGI", "setting": "786-0 renal", "result": "> 100", "unit": "µM"},
      {"measurement": "TGI", "setting": "SW-620 colon", "result": "> 100", "unit": "µM"},
      {"measurement": "TGI", "setting": "SK-OV-3 ovarian", "result": "> 100", "unit": "µM"},
      {"measurement": "TGI", "setting": "OVCAR-5 ovarian", "result": "> 100", "unit": "µM"},
      {"measurement": "TGI", "setting": "UACC-257 melanoma", "result": "> 100", "unit": "µM"},
      {"measurement": "TGI", "setting": "SK-MEL-28 melanoma", "result": "> 100", "unit": "µM"},
      {"measurement": "TGI", "setting": "NCI-H23 lung", "result": "> 100", "unit": "µM"},
      {"measurement": "TGI", "setting": "MDA-N", "result": "> 100", "unit": "µM"},
      {"measurement": "TGI", "setting": "HCT-15 colon", "result": "> 100", "unit": "µM"},
      {"measurement": "TGI", "setting": "CCRF-CEM leukemia", "result": "> 100", "unit": "µM"},
      {"measurement": "TGI", "setting": "NCI-H460 lung", "result": "> 100", "unit": "µM"},
      {"measurement": "TGI", "setting": "UO-31 renal", "result": "> 100", "unit": "µM"}
    ]}
  ]
}
